Values of other authors as cited in article PMC6007947, “Sensitivity of pretargeted immunoPET using ^68Ga-peptide to detect colonic carcinoma liver metastases in a murine xenograft model: Comparison with ^18FDG PET-CT” (Oncotarget, 2018).

Details: stated in discussion
Description: Pretargeting is one way to improve tumor uptake and tumor to normal organ uptake ratios by reducing the molecular size of the radioactive agent and using a non-radiolabeled bispecific antibody, such as TF2. TF2 is a humanized bispecific monoclonal antibody produced by the Dock-and-Lock® technology, containing two anti-CEA Fab fragments and another Fab fragment binding the HSG hapten component of the IMP288 hapten peptide. Compared to previously used bispecific antibodies with a single binding site for the tumor antigen and another for the hapten, this bivalency is expected to increase t ...

DOTA-D-Tyr-D-Lys(HSG)-D-Glu-D-Lys(HSG)-NH2 [IMP288, DOTA-conjugated tetrapeptide containing two HSG hapten structures]
Clearance from blood: within an hour
